Experimental data published in publication PMC5988656, “Phase I studies of AZD1208, a proviral integration Moloney virus kinase inhibitor in solid and haematological cancers” (British Journal of Cancer, 2018).

Test system: patients with recurrent or refractory AML
Test: AML dose-escalation study: safety and tolerability (AEs, DLTs)
Assay type: in vivo, human
Description: Conducted at three centres in the USA and one in Canada. Dose escalation followed a conventional 3 + 3 design. […] In the first cohort, dosing between the first and subsequent patients was staggered with a 7-day interval. Dose-escalation decisions were based on the safety and tolerability data from ≥3 evaluable patients (or six if one of the first three patients experienced a dose-limiting toxicity [DLT]).
AZD1208 could be escalated by up to 100% in subsequent cohorts until one DLT was observed, after which succeeding doses were escalated by up to 50%.
In the case of a DLT, the cohort was expanded to six patients. If a DLT occurred in ≥2 patients within a cohort, the dose was determined to be a non-tolerated dose (NTD) and dose escalation was stopped.
Grade 3 or 4 toxicities not attributable to the disease or disease-related processes under investigation, and occurring before the end of Cycle 1, were considered DLTs.
The NTD was identified as the dose at which ≥2 DLTs occurred in a given cohort.

SMILES: N[C@@H]1CCCN(c2c(/C=C3\SC(=O)NC3=O)cccc2-c2ccccc2)C1 [AZD1208]
- Abdominal pain (all-grade AE) (120 mg, n = 4): 1 (25.0) n (%)
- Asthenia (all-grade AE) (120 mg, n = 4): 1 (25.0) n (%)
- Chills (all-grade AE) (120 mg, n = 4): 0 n (%)
- Cough (all-grade AE) (120 mg, n = 4): 0 n (%)
- Decreased appetite (all-grade AE) (120 mg, n = 4): 0 n (%)
- Dehydration (all-grade AE) (120 mg, n = 4): 0 n (%)
- Diarrhoea (all-grade AE) (120 mg, n = 4): 1 (25.0) n (%)
- Dyspnoea (all-grade AE) (120 mg, n = 4): 0 n (%)
- Fatigue (all-grade AE) (120 mg, n = 4): 1 (25.0) n (%)
- Febrile neutropenia (all-grade AE) (120 mg, n = 4): 3 (75.0) n (%)
- Headache (all-grade AE) (120 mg, n = 4): 0 n (%)
- Hyperglycaemia (all-grade AE) (120 mg, n = 4): 0 n (%)
- Hypocalcaemia (all-grade AE) (120 mg, n = 4): 1 (25.0) n (%)
- Hypokalaemia (all-grade AE) (120 mg, n = 4): 0 n (%)
- Hypomagnesaemia (all-grade AE) (120 mg, n = 4): 1 (25.0) n (%)
- Hypophosphataemia (all-grade AE) (120 mg, n = 4): 1 (25.0) n (%)
- Hypotension (all-grade AE) (120 mg, n = 4): 1 (25.0) n (%)
- Maculopapular rash (all-grade AE) (120 mg, n = 4): 0 n (%)
- Nausea (all-grade AE) (120 mg, n = 4): 3 (75.0) n (%)
- Oedema peripheral (all-grade AE) (120 mg, n = 4): 1 (25.0) n (%)
- Patients with any AE (all-grade AE) (120 mg, n = 4): 3 (75.0) n (%)
- Pneumonia (all-grade AE) (120 mg, n = 4): 1 (25.0) n (%)
- Pyrexia (all-grade AE) (120 mg, n = 4): 0 n (%)
- Rash (all-grade AE) (120 mg, n = 4): 0 n (%)
- Renal failure acute (all-grade AE) (120 mg, n = 4): 0 n (%)
- Stomatitis (all-grade AE) (120 mg, n = 4): 1 (25.0) n (%)
- Vision blurred (all-grade AE) (120 mg, n = 4): 1 (25.0) n (%)
- Vomiting (all-grade AE) (120 mg, n = 4): 2 (50.0) n (%)
- Patients in whom AZD1208 was discontinued as a result of SAEs and AEs (240 mg (bacteremia, peristomal ulcer)): 1 n
- Abdominal pain (all-grade AE) (240 mg, n = 6): 0 n (%)
- Asthenia (all-grade AE) (240 mg, n = 6): 0 n (%)
- Chills (all-grade AE) (240 mg, n = 6): 1 (16.7) n (%)
- Cough (all-grade AE) (240 mg, n = 6): 1 (16.7) n (%)
- DLT detail, action taken (240 mg, n = 6): Peristomal ulcer, drug permanently discontinued
- Decreased appetite (all-grade AE) (240 mg, n = 6): 1 (16.7) n (%)
- Dehydration (all-grade AE) (240 mg, n = 6): 0 n (%)
- Diarrhoea (all-grade AE) (240 mg, n = 6): 1 (16.7) n (%)
- Dyspnoea (all-grade AE) (240 mg, n = 6): 1 (16.7) n (%)
- Fatigue (all-grade AE) (240 mg, n = 6): 1 (16.7) n (%)
- Febrile neutropenia (all-grade AE) (240 mg, n = 6): 2 (33.3) n (%)
- Headache (all-grade AE) (240 mg, n = 6): 0 n (%)
- Hyperglycaemia (all-grade AE) (240 mg, n = 6): 0 n (%)
- Hypocalcaemia (all-grade AE) (240 mg, n = 6): 1 (16.7) n (%)
- Hypokalaemia (all-grade AE) (240 mg, n = 6): 0 n (%)
- Hypomagnesaemia (all-grade AE) (240 mg, n = 6): 1 (16.7) n (%)
- Hypophosphataemia (all-grade AE) (240 mg, n = 6): 0 n (%)
- Hypotension (all-grade AE) (240 mg, n = 6): 2 (33.3) n (%)
- Maculopapular rash (all-grade AE) (240 mg, n = 6): 1 (16.7) n (%)
- Nausea (all-grade AE) (240 mg, n = 6): 4 (66.7) n (%)
- Oedema peripheral (all-grade AE) (240 mg, n = 6): 1 (16.7) n (%)
- Patients with any AE (all-grade AE) (240 mg, n = 6): 6 (100.0) n (%)
- Pneumonia (all-grade AE) (240 mg, n = 6): 3 (50.0) n (%)
- Pyrexia (all-grade AE) (240 mg, n = 6): 0 n (%)
- Rash (all-grade AE) (240 mg, n = 6): 0 n (%)
- Renal failure acute (all-grade AE) (240 mg, n = 6): 1 (16.7) n (%)
- Stomatitis (all-grade AE) (240 mg, n = 6): 1 (16.7) n (%)
- Vision blurred (all-grade AE) (240 mg, n = 6): 0 n (%)
- Vomiting (all-grade AE) (240 mg, n = 6): 3 (50.0) n (%)
- Patients in whom AZD1208 was discontinued as a result of SAEs and AEs (480 mg (vomiting, gingival pain)): 2 n
- Abdominal pain (all-grade AE) (480 mg, n = 6): 1 (16.7) n (%)
- Asthenia (all-grade AE) (480 mg, n = 6): 1 (16.7) n (%)
- Chills (all-grade AE) (480 mg, n = 6): 0 n (%)
- Cough (all-grade AE) (480 mg, n = 6): 1 (16.7) n (%)
- DLT detail, action taken (480 mg, n = 6): Fatigue, drug interrupted
- Decreased appetite (all-grade AE) (480 mg, n = 6): 0 n (%)
- Dehydration (all-grade AE) (480 mg, n = 6): 0 n (%)
- Diarrhoea (all-grade AE) (480 mg, n = 6): 3 (50.0) n (%)
- Dyspnoea (all-grade AE) (480 mg, n = 6): 2 (33.3) n (%)
- Fatigue (all-grade AE) (480 mg, n = 6): 4 (66.7) n (%)
- Febrile neutropenia (all-grade AE) (480 mg, n = 6): 0 n (%)
- Headache (all-grade AE) (480 mg, n = 6): 3 (50.0) n (%)
- Hyperglycaemia (all-grade AE) (480 mg, n = 6): 2 (33.3) n (%)
- Hypocalcaemia (all-grade AE) (480 mg, n = 6): 1 (16.7) n (%)
- Hypokalaemia (all-grade AE) (480 mg, n = 6): 3 (50.0) n (%)
- Hypomagnesaemia (all-grade AE) (480 mg, n = 6): 2 (33.3) n (%)
- Hypophosphataemia (all-grade AE) (480 mg, n = 6): 2 (33.3) n (%)
- Hypotension (all-grade AE) (480 mg, n = 6): 2 (33.3) n (%)
- Maculopapular rash (all-grade AE) (480 mg, n = 6): 0 n (%)
- Nausea (all-grade AE) (480 mg, n = 6): 1 (16.7) n (%)
- Oedema peripheral (all-grade AE) (480 mg, n = 6): 3 (50.0) n (%)
- Patients with any AE (all-grade AE) (480 mg, n = 6): 6 (100.0) n (%)
- Pneumonia (all-grade AE) (480 mg, n = 6): 2 (33.3) n (%)
- Pyrexia (all-grade AE) (480 mg, n = 6): 1 (16.7) n (%)
- Rash (all-grade AE) (480 mg, n = 6): 1 (16.7) n (%)
- Renal failure acute (all-grade AE) (480 mg, n = 6): 2 (33.3) n (%)
- Stomatitis (all-grade AE) (480 mg, n = 6): 3 (50.0) n (%)
- Vision blurred (all-grade AE) (480 mg, n = 6): 3 (50.0) n (%)
- Vomiting (all-grade AE) (480 mg, n = 6): 2 (33.3) n (%)
- Patients in whom AZD1208 was discontinued as a result of SAEs and AEs (700 mg (lung infection, GBS, Escherichia spp. sepsis)): 3 n
- Abdominal pain (all-grade AE) (700 mg, n = 7): 3 (42.9) n (%)
- Asthenia (all-grade AE) (700 mg, n = 7): 1 (14.3) n (%)
- Chills (all-grade AE) (700 mg, n = 7): 1 (14.3) n (%)
- Cough (all-grade AE) (700 mg, n = 7): 4 (57.1) n (%)
- DLT detail, action taken (700 mg, n = 7): GBS, drug permanently discontinued
- Decreased appetite (all-grade AE) (700 mg, n = 7): 2 (28.6) n (%)
- Dehydration (all-grade AE) (700 mg, n = 7): 0 n (%)
- Diarrhoea (all-grade AE) (700 mg, n = 7): 5 (71.4) n (%)
- Dyspnoea (all-grade AE) (700 mg, n = 7): 2 (28.6) n (%)
- Fatigue (all-grade AE) (700 mg, n = 7): 2 (28.6) n (%)
- Febrile neutropenia (all-grade AE) (700 mg, n = 7): 1 (14.3) n (%)
- Headache (all-grade AE) (700 mg, n = 7): 1 (14.3) n (%)
